According to PMC11480993, “Combining Data-Driven and Structure-Based Approaches in Designing Dual PARP1-BRD4 Inhibitors for Breast Cancer Treatment” (Journal of Chemical Information and Modeling, 2024):
Read-outs that look alike come from different tables or passages of the source.

Key:
PARP1 = PARP1 (Homo sapiens, UniProt P09874); assay: In vitro PARP1 enzymatic activity (ELISA, biotinylated NAD+, luminescence); format: biochemical
Procedure: The inhibition of the tested compounds on PARP1 enzymatic activity was determined by ELISA in 96-well plates. Each well was precoated with histone (20 μg/mL) diluted in 100 μL of PBS buffer (10 mM NaH2PO4, 100 mM Na2HPO4, 150 mM NaCl, pH 7.4) by incubation at 4 °C overnight. […] The reaction was initiated by the addition of 20 μL of PARP1 (50 ng/well) at 30 °C for 1 h. Then the reaction solution was added to 50 μL of streptavidin conjugated HRP. The assay was performed at 30 °C for an additional 30 min. Finally, 100 μL of solution (H2O2 and luminol in citrate buffer 0.1 M, pH 5.4) was added and luminescent signal was measured using a multiwell spectrophotometer (Molecular Devices SpectraMax M5 microplate reader).

BRD1 = BRD1 (Homo sapiens, UniProt O95696); assay: BRD TR-FRET assay, BRD1; format: binding
Sequence of BRD1 (O95696 whole entry): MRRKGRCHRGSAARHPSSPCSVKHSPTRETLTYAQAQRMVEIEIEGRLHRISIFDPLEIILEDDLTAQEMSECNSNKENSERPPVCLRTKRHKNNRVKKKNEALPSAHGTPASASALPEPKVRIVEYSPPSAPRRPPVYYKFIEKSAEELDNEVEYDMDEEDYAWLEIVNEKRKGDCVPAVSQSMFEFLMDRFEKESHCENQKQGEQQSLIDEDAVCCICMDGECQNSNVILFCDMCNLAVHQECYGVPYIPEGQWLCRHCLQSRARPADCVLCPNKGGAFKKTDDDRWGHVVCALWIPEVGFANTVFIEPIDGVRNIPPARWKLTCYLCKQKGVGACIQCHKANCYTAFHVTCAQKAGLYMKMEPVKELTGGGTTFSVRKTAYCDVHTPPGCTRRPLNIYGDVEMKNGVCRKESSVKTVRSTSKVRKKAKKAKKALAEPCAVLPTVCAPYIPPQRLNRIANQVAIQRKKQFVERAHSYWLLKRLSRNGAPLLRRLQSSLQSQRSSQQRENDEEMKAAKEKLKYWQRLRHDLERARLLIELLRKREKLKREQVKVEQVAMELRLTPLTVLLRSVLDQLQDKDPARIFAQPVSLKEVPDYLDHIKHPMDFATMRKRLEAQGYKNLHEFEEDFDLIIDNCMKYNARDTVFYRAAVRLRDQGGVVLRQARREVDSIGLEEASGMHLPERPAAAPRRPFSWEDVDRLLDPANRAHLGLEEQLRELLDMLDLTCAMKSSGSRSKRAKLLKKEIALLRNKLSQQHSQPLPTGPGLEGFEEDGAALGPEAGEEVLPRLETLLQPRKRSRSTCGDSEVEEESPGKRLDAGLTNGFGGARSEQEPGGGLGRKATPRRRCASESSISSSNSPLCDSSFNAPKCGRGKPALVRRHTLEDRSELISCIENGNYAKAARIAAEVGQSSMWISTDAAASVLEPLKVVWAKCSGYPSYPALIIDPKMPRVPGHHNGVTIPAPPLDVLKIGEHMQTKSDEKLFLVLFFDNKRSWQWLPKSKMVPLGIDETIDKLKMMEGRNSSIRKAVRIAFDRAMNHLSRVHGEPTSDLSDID
Procedure: The assay was performed by TR-FRET technology using a BRD and its corresponding ligand (BET). The TR-FRET signal from the assay is correlated with the amount of ligand binding to the bromodomain. All of the binding reactions were conducted at room temperature. The 20 μL reaction mixture in Assay Buffer contains either bromodomains, BET Ligand, and the indicated amount of inhibitor. For the negative control (blank), 5 μL of the assay buffer was added instead of the BET ligand. The reaction mixture was incubated for 120 min. After the incubation with the ligand, the TR-FRET signal was measured using a Tecan Infinite M1000 plate reader.

MCF-7 cells [1] = assay: Cell viability (MTT), MCF-7; format: cell-based; settings: Homo sapiens, MCF7, 96 h; 4-day treatment, wild-type BRCA
Procedure: (§1) MDA-MB-231, MDA-MB-436, and MCF-7 cells were seeded into 96-well plates with the number of 5 × 10^3 in each cell and allowed to incubate for 24 h. Subsequently, various concentrations of the test compounds (ranging from 100 to 0.78 μM with twice gradient dilution) were introduced. After 4 days of incubation, MTT solution was applied, and the cells were incubated for an additional 4 h. Following the removal of the supernatant, the violet crystals were dissolved in 200 μL of DMSO, and the absorbance was measured at 570 nm.

MDA-MB-231 cells = assay: Cell viability (MTT), MDA-MB-231; format: cell-based; settings: Homo sapiens, MDA-MB-231, 96 h; 4-day treatment, wild-type BRCA
Procedure: as §1

MDA-MB-436 cells = assay: Cell viability (MTT), MDA-MB-436; format: cell-based; settings: Homo sapiens, MDA-MB-436, 96 h; 4-day treatment, BRCA mutant
Procedure: as §1

[2] = test system: HEK293T (human embryonic kidney cell); assay: Cytotoxicity against non-tumor cells, HEK293T; format: cell-based; settings: HEK-293T, 96 h, 4-day treatment
Source text: (§2) To further establish HF4’s advantage, we employed a web-based in silico cytotoxicity prediction tool (https://www.way2drug.com/clc-pred/index.php), encompassing the prediction against 391 tumor and 47 normal human cell lines,[47] to predict the cytotoxicity of HF4 against nontumor cell lines. […] The absence of nontumor cell lines among the top-ranked ones indicates a limited impact on normal cell line. When threshold of ≥0.15 was applied, among 50 predictions, only a single normal cell line (HEK293) was present in the list, with a predicted probability value below 0.2. We further reinforced the safety profile of HF4 by conducting experimental safety assessments on two normal cell lines. […] In summary, we conducted both computational safety predictions and experimental evaluations on normal cell lines to strengthen the assurance of HF4’s safety profile.
(§3) Cytotoxicity of HF4 against non-tumor cells
(§4) Figure S6. Cytotoxicity of HF4 against non-tumor cells during a 4-day treatment.
(§5) (1 picture or pasted object on this page, not shown here)

[3] = test system: L02 (normal human liver cell); assay: Cytotoxicity against non-tumor cells, L02; format: cell-based; settings: 96 h, 4-day treatment
Source text: as §2, §3, §4, §5

MCF-7 cells [4] = assay: Colony formation assay; format: cell-based; settings: seven-day exposure
Procedure: The cells were placed in a 6-well plate at a density of approximately 500 cells per well and allowed to incubate for 24 h. Subsequently, the cells were exposed to the specified concentrations of test compounds and a control vehicle for a duration of 7 days. Following this treatment period, the cells were fixed using a 4% formaldehyde solution, stained with crystal violet, and then imaged.

MCF-7 cells [5] = assay: Cell apoptosis detection (Annexin V-FITC/PI flow cytometry); format: cell-based; settings: 2 μM, MCF-7, dose-dependent
Procedure: Cell apoptosis was assessed using the Annexin V-FITC/PI apoptosis detection kit. Following a 24 h treatment, cells were harvested and rinsed with PBS. Subsequently, the gathered cells were stained in accordance with the manufacturer’s guidelines and analyzed using BD FACSCelesta flow cytometry (New York, USA). FlowJo_V10 software was employed for data analysis.

MCF-7 cells [6] = assay: Cell cycle detection (PI flow cytometry); format: cell-based; settings: for cell cycle G0/G1 / cell cycle G2/M / cell cycle S: 24 h
Procedure: Cell cycle analysis was performed using a PI cell cycle detection kit. Following a 24 h treatment, cells were gathered, fixed with 75% ethanol, and stained with PI according to the manufacturer’s protocol. Subsequently, cell cycle analysis was detected using BD FACSCelesta flow cytometry (New York, USA). The obtained data were then subjected to analysis using FlowJo_V10.

BRD4 = assay: Western blot, BRD4 expression in MCF-7 cells; format: cell-based; settings: MCF-7, 48 h treatment
Procedure: (§6) Following a 48 h treatment, cellular proteins were extracted using RIPA cell lysis buffer containing protease and phosphatase inhibitor cocktail. The protein concentration was assessed by using a BCA assay. Subsequently, equal amounts of these proteins were loaded onto an SDS-PAGE gel and transferred onto a PVDF membrane. The protein-loaded membrane was then blocked using a commercial blocking solution (Beyotime, China) and sequentially incubated with primary and secondary antibodies. Protein bands were visualized using an ECL chemiluminescence kit and quantified using ImageJ software.

Caspase 3 = assay: Western blot, Caspase 3 in MCF-7 cells; format: cell-based; settings: MCF-7, 48 h, dose-dependent
Procedure: as §6

cleaved Caspase 3 = assay: Western blot, cleaved Caspase 3 in MCF-7 cells; format: cell-based; settings: MCF-7, 48 h, dose-dependent
Procedure: as §6

CDK6 = assay: Western blot, CDK6 in MCF-7 cells; format: cell-based; settings: MCF-7, 48 h
Procedure: as §6

γH2AX = assay: Western blot, γH2AX in MCF-7 cells; format: cell-based; settings: MCF-7, 48 h
Procedure: as §6

Sequence of PARP1 (P09874 whole entry): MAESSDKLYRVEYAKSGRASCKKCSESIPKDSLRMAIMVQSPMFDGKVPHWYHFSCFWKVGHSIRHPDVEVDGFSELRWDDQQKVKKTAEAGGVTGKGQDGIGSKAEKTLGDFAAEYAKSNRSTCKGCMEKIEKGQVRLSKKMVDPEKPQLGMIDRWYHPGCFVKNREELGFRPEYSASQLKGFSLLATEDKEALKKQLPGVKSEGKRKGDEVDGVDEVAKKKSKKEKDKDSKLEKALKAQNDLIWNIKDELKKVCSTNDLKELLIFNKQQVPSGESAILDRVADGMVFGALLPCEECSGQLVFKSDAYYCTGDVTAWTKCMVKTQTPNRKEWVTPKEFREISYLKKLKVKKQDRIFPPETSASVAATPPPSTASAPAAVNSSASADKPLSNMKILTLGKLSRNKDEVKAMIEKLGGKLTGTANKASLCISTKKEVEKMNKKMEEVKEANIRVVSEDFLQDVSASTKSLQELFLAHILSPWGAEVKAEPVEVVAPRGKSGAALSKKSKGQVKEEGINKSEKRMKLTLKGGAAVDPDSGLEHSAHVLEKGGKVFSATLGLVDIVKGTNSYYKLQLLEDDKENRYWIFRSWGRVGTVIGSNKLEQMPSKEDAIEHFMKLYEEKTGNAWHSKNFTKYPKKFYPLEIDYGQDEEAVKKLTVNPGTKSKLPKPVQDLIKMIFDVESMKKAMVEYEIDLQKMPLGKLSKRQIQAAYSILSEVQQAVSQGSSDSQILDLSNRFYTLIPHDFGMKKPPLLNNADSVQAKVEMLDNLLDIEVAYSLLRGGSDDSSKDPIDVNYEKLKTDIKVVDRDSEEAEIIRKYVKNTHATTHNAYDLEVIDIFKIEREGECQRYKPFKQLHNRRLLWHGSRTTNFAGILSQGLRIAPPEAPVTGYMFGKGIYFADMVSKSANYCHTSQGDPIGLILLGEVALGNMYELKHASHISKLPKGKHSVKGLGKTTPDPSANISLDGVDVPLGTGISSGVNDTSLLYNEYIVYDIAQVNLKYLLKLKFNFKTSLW

IC50 (PARP1): 2.02 ± 0.683 µM | decrease in effectiveness against PARP1, tricyclic to bicyclic scaffold (PARP1; HF4 vs HF1): approximately 20 fold | ligand efficiency index against PARP1 (PARP1; pIC50 divided by HAC, HAC = 25): 0.23 | IC50 (PARP1; value of the text): ~2 µM | IC50 (BRD1): 55.6 ± 13.9 µM | IC50 (MCF-7 cells [1]): 2.1 µM | IC50 (MDA-MB-231 cells): 2.2 µM | IC50 (MDA-MB-436 cells): 4.9 µM
Structure (SMILES): CCc1cc2cc(NS(=O)(=O)c3ccc(F)c(C)c3)ccc2[nH]c1=O [HF4, N-(3-ethyl-2-oxo-1,2-dihydroquinolin-6-yl)-4-fluoro-3-methylbenzenesulfonamide]
IC50 [2]: 21.5 ± 7.4 µM | IC50 [3]: 26.3 ± 6.2 µM | colony formation (MCF-7 cells [4]; 2 μM): marked decline in colony formation | colony formation (MCF-7 cells [4]; 8 μM): nearly no visible colonies | apoptotic cells (MCF-7 cells [5]): substantial increase in apoptotic cells | effect on cell cycle (MCF-7 cells [6]): halted the cell cycle at the G0/G1 phase | cell cycle G0/G1 (MCF-7 cells [6]; 2 μM): 83.0% | cell cycle G2/M (MCF-7 cells [6]; 2 μM): 0.51% | cell cycle S (MCF-7 cells [6]; 2 μM): 17.0% | cell cycle G0/G1 (MCF-7 cells [6]; 4 μM): 89.0% | cell cycle G2/M (MCF-7 cells [6]; 4 μM): 2.96% | cell cycle S (MCF-7 cells [6]; 4 μM): 9.42% | cell cycle G0/G1 (MCF-7 cells [6]; 8 μM): 92.0% | cell cycle G2/M (MCF-7 cells [6]; 8 μM): 4.55% | cell cycle S (MCF-7 cells [6]; 8 μM): 7.63% | BRD4 expression (BRD4): an increase but to a much lesser extent than JQ1 | Caspase 3 expression (Caspase 3): significantly downregulated | cleaved Caspase 3 expression (cleaved Caspase 3): upregulating | CDK6 expression (CDK6): dose-dependently lowered | levels of γH2AX (γH2AX): dose-dependent upregulation
